Earlier results in EP1694724B1, “pH SENSITIVE POLYMER AND PROCESS FOR PREPARATION THEREOF” (Council of Scientific and Industrial Research, priority 2003, dated 2005).

Settings: humans

bioavailability: 32-50%
SMILES: CO/N=C(\C(=O)N[C@@H]1C(=O)N2C(C(=O)OC(C)OC(C)=O)=C(COC(N)=O)CS[C@H]12)c1ccco1 (stereo partly shown) [Cefuroxime axetil, cefuroxime axetil]
